We go through four molecules from patent US4156729A, “1,2-Benzisothiazolin-3-ones” (Bayer Aktiengesellschaft, priority 1976, dated 1979).

Values after ≈ are worked out from the molar mass of the structure shown.

Experiment [1] deals with Human PRP. Nature of the experiment: In vitro ADP-induced thrombocyte aggregation inhibition, human PRP. In kind it is cell-based. As to conditions: 10 min preincubation, 37° C. How it is done:
(§1) In vitro: Blood from healthy human test subjects of both sexes, and blood of rabbits and rats is used. One part of 3.8% strength aqueous sodium citrate solution, as an anticoagulant, is mixed with nine parts of blood. Centrifugation of this blood gives a platelet-rich citrate plasma (PRP); see generally Jurgens/Beller, Klinische Methoden der Blutgerinnungsanalyse, Thieme Verlag, Stuttgart (1959).
(§2) A mixture of 0.8 ml of PRP and 0.1 ml of the active compound solution is preincubated for 10 minutes at 37° C. Thrombocyte aggregation is then determined by the turbidimetric method of Born [J. Physiol. (London) 162, 67 (1962)] in an aggregometer at 37° C. [see generally Therapeutische Berichte, 47, 80-86 (1975)]. An aggregation-initiating agent (0.1 ml) such as collagen or ADP is thus added to the preincubated sample. The change in the optical density in the sample of PRP is recorded over a period of 6 minutes and the percentage inhibition is then calculated from the integrated area or the deflection.
(§3) Table I presents ranges of concentration at which the thrombocyte aggregation is inhibited by a value of 50% utilizing 2-(2-diethylaminoethyl)-4,6-dimethyl-1,2-benzisothiazolin-3-one (as the 1,5-naphthalenedisulfonate hemisalt) [compound A].

Experiment [2] deals with Rabbit PRP. Nature of the experiment: In vitro ADP-induced thrombocyte aggregation inhibition, rabbit PRP. In kind it is cell-based. As to conditions: Oryctolagus cuniculus, 10 min preincubation, 37° C. How it is done: as §1, §2, §3
Experiment [3] deals with Rat PRP. The experiment is described as follows: In vitro ADP-induced thrombocyte aggregation inhibition, rat PRP. In kind it is cell-based. As to conditions: 10 min preincubation, 37° C. The procedure:
as §1, §2, §3

Experiment [4] relates to thrombocyte aggregation in PRP of rats. The experiment is described as follows: Inhibition of collagen-induced thrombocyte aggregation in PRP of rats upon in vivo administration. As to conditions: rat, 10 mg/kg oral, 90 minutes after administration, *=statistically significant (p 0.05). How it is done:
as §2
(§4) In carrying out these experiments, the compound is administered orally in a tragacanth suspension. The animals are then bled, 90 minutes (rats) or 2 hours (rabbits), after administration, and the PRP is isolated by centrifuging. After isolating the PRP, the measurement of the aggregation inhibition is conducted in vitro analogously to the process described for Table I, without however any preincubation of the samples. Three parts of the rat PRP are furthermore diluted with 1 part of physiological sodium chloride solution.

The test system is the same in experiment [5]. Nature of the experiment: Inhibition of ADP-induced thrombocyte aggregation in PRP of rats upon in vivo administration. As to conditions: rat, 30 mg/kg oral, 90 minutes after administration, *=statistically significant (p 0.05). The procedure:
as §2, §4

Experiment [6] relates to thrombocyte aggregation in PRP of rabbits. Nature of the experiment: Inhibition of collagen-induced thrombocyte aggregation in PRP of rabbits upon in vivo administration. As to conditions: rabbit, 30 mg/kg oral, 2 hours after administration, *=statistically significant (p 0.05). The procedure: as §2, §4
The test system is the same in experiment [7]. The experiment is described as follows: Inhibition of ADP-induced thrombocyte aggregation in PRP of rabbits upon in vivo administration. As to conditions: rabbit, 30 mg/kg oral, 2 hours after administration, *=statistically significant (p 0.05). How it is done: as §2, §4
In experiment [8] the test system is Rabbit PRP. The experiment is described as follows: In vitro collagen-induced thrombocyte aggregation inhibition, rabbit PRP. Type of experiment: cell-based. As to conditions: Oryctolagus cuniculus, 10 min preincubation, 37° C. How it is done: as §1, §2, §3
In experiment [9] the test system is thrombus formation in left carotid artery of a rat. The experiment is described as follows: Inhibition of thrombus formation in vivo (rat carotid artery). As to conditions: 30 mg/kg oral, immediately before the procedure, thrombus isolated 4 hours later. The procedure:
In this experiment, the left carotid artery of a rat is exposed and cooled to minus 15° C. to stimulate thrombus formation. At the same time, the blood flow is reduced by means of a silver clip. The thrombus is isolated from the artery 4 hours later and is weighted. The table indicates the percentage reduction in weight of the thrombus when the test compound is administered immediately before the procedure.

The subject of experiment [10] is ADP-induced aggregation. The experiment is described as follows: ADP-induced aggregation in vitro (summary statement). In kind it is cell-based. As to conditions: relative to the compounds according to the invention. How it is done: as §1, §2
Experiment [11] relates to ADP-induced aggregation. The experiment is described as follows: Activity in vivo at the tested doses (summary statement). How it is done:
as §4

One may read the IC50 as the concentration needed to halve the response being measured. Read a low IC50 as inhibition by little substance. As for `CC(=O)Oc1ccccc1C(=O)O` [Acetylsalicylic acid], the IC50 is > 100 µg/mL in experiment [1], > 10 µg/mL in [2] and > 10 µg/mL in [3]. The “Percent inhibition (1) (integrated area)” value in experiment [4] was 31%; in [5], 15%; in [6], 63%; in [7], 15%. Besides, the “Percent inhibition (2) (amplitude)” value was 35% in [4], 27% in [5], 58% in [6] and 6% in [7].

Regarding `CCN(CC)CCn1sc2cc(C)cc(C)c2c1=O` [Compound A, 2-(2-diethylaminoethyl)-4,6-dimethyl-1,2-benzisothiazolin-3-one], the IC50 in experiment [8], in [2] and in [3] was 1 µg/mL (≈ 3.59 µM) each time. In addition, the “Percent inhibition (1) (integrated area)” value in [4] amounted to 72%; in experiment [5], 45%; in experiment [6], 74%; in [7] it was 33%. In addition, the “Percent inhibition (2) (amplitude)” value amounted to 71% in experiment [4], 77% in experiment [5], 72% in experiment [6] and 54% in experiment [7]. In addition, the “Percentage inhibition (percentage reduction in weight of the thrombus)” value in [9] is on record as 48 Percentage.

`OCCN(CCO)c1nc(N2CCCCC2)c2nc(N(CCO)CCO)nc(N3CCCCC3)c2n1` [Dipyridamol]: the IC50 was > 100 µg/mL in experiment [1] and > 10 µg/mL in experiment [3]. Also, in experiment [4], the “Percent inhibition (1) (integrated area)” value amounted to 5%. Further, the “Percent inhibition (2) (amplitude)” value in experiment [4] is given as 7%; in experiment [5] it was -23%. Moreover, the “Percentage inhibition (percentage reduction in weight of the thrombus)” value in experiment [9] was found to be 17 Percentage. The activity in vitro result in experiment [10] is given as “substantially less active in vitro”. In addition, the activity in vivo entry in [11] was “inactive at the tested doses in vivo”.

For `O=C1C(CC[S+]([O-])c2ccccc2)C(=O)N(c2ccccc2)N1c1ccccc1` (centres unmarked) [Sulfinepyrazone], the IC50 in experiment [1] is > 100 µg/mL; in [3], > 10 µg/mL. In experiment [4], the “Percent inhibition (1) (integrated area)” value was -3%. Moreover, the “Percent inhibition (2) (amplitude)” value is recorded as 0% in experiment [4] and -5% in experiment [5]. Moreover, the activity in vitro entry in [10] was “substantially less active in vitro”. For the same molecule, in experiment [11], the activity in vivo result is “inactive at the tested doses in vivo”.
